# Patent US10238631B2, “Sesquiterpene derivatives and their use in inflammation or cancer treatment” (Academia Sinica, priority 2014, dated 2019)
# Tested on: TS/A (ER+, Her2−) murine mammary cancer cells
# Experiment: MTT cell viability assay, TS/A cells
# Format: cell-based
# Details: Mus musculus, 24 h, read-out: IC50 on cell viability, TS/A (ER+, Her2−)
# Procedure, shortened: (§1)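 Cells were seeded at 2×10^3 to 1×10^4 per well overnight, then exposed to compounds for 24 h to 72 h. Viability was read by MTT at OD570 as a percentage of the 0.5% DMSO vehicle control.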
row,SMILES,IC50 [µM]
1,C=C1C(=O)OC2CC3=C[C@@H](C/C(C)=C/[C@@H](OC(=O)C(C)(OC)c4ccc5ccccc5c4)[C@H]12)OC3=O (some centres unmarked) [DETD-55],2.8
2,C=C1C(=O)OC2CC3=C[C@@H](C/C(C)=C/C(OC(=O)c4ccc(C)cc4)[C@H]12)OC3=O (some centres unmarked) [DETD-33],1.8
3,C=C1C(=O)OC2CC3=C[C@@H](C/C(C)=C/C(OC(=O)C(C)CC)[C@H]12)OC3=O (some centres unmarked) [DETD-13],1.9

# Tested on: MDA-MB-231 (ER−, PR−, Her2−) human breast cancer cells
# Experiment: MTT cell viability assay, MDA-MB-231 cells
# Format: cell-based
# Details: Homo sapiens, MDA-MB-231, 24 h, read-out: IC50 on cell viability, MDA-MB-231 (ER−, PR−, Her2−)
# Procedure, shortened: as §1
row,SMILES,IC50 [µM]
1,C=C1C(=O)OC2CC3=C[C@@H](C/C(C)=C/[C@@H](OC(=O)C(C)(OC)c4ccc5ccccc5c4)[C@H]12)OC3=O (some centres unmarked) [DETD-55],4.1
2,C=C1C(=O)OC2CC3=C[C@@H](C/C(C)=C/C(OC(=O)c4ccc(C)cc4)[C@H]12)OC3=O (some centres unmarked) [DETD-33],4.2
3,C=C1C(=O)OC2CC3=C[C@@H](C/C(C)=C/C(OC(=O)C(C)CC)[C@H]12)OC3=O (some centres unmarked) [DETD-13],7.5

# Tested on: MCF-7 (ER+, Her2−) human breast cancer cells
# Experiment: MTT cell viability assay, MCF-7 cells
# Format: cell-based
# Details: MCF7, 24 h, read-out: IC50 on cell viability, MCF-7 (ER+, Her2−)
# Procedure, shortened: as §1
row,SMILES,IC50 [µM]
1,C=C1C(=O)OC2CC3=C[C@@H](C/C(C)=C/[C@@H](OC(=O)C(C)(OC)c4ccc5ccccc5c4)[C@H]12)OC3=O (some centres unmarked) [DETD-55],> 7.5
2,C=C1C(=O)OC2CC3=C[C@@H](C/C(C)=C/C(OC(=O)c4ccc(C)cc4)[C@H]12)OC3=O (some centres unmarked) [DETD-33],2.7
3,C=C1C(=O)OC2CC3=C[C@@H](C/C(C)=C/C(OC(=O)C(C)CC)[C@H]12)OC3=O (some centres unmarked) [DETD-13],3.7

# Tested on: M10 normal mammary epithelial cells
# Experiment: MTT cell viability assay, M10 normal cells
# Format: cell-based, human
# Details: Homo sapiens, Epithelial cell, 24 h
# Procedure, shortened: as §1
row,SMILES,IC50 [µM]
1,C=C1C(=O)OC2CC3=C[C@@H](C/C(C)=C/[C@@H](OC(=O)C(C)(OC)c4ccc5ccccc5c4)[C@H]12)OC3=O (some centres unmarked) [DETD-55],> 7.5
2,C=C1C(=O)OC2CC3=C[C@@H](C/C(C)=C/C(OC(=O)c4ccc(C)cc4)[C@H]12)OC3=O (some centres unmarked) [DETD-33],> 7.5
3,C=C1C(=O)OC2CC3=C[C@@H](C/C(C)=C/C(OC(=O)C(C)CC)[C@H]12)OC3=O (some centres unmarked) [DETD-13],> 7.5

# Tested on: B16-F10 (NRAS mutation)
# Experiment: MTT cell viability assay, B16-F10 melanoma
# Format: cell-based
# Details: Mus musculus, B16-F10, 24 h, 24 h, read-out: IC50 on cell viability, B16-F10 (NRAS mutation)
# Procedure, shortened: (§2)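 Cells (2×10^3 to 1×10^4/well) seeded overnight, then exposed to compounds for 24 h to 72 h. Growth read by MTT colorimetry at OD570. Viability expressed as % of vehicle (0.5% DMSO) control.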
row,SMILES,IC50 [µM]
1,C=C1C(=O)OC2CC3=C[C@@H](C/C(C)=C/[C@@H](OC(=O)C(C)(OC)c4ccc5ccccc5c4)[C@H]12)OC3=O (some centres unmarked) [DETD-55],4.8
2,C=C1C(=O)OC2CC3=C[C@@H](C/C(C)=C/C(OC(=O)c4ccc(C)cc4)[C@H]12)OC3=O (some centres unmarked) [DETD-33],2.2
3,C=C1C(=O)OC2CC3=C[C@@H](C/C(C)=C/C(OC(=O)C(C)CC)[C@H]12)OC3=O (some centres unmarked) [DETD-13],7.1

# Tested on: MeWo (No NRAS or BRAF mutation)
# Experiment: MTT cell viability assay, MeWo melanoma
# Format: cell-based, human
# Details: Homo sapiens, MeWo, 24 h
# Procedure, shortened: as §2
row,SMILES,IC50 [µM]
1,C=C1C(=O)OC2CC3=C[C@@H](C/C(C)=C/[C@@H](OC(=O)C(C)(OC)c4ccc5ccccc5c4)[C@H]12)OC3=O (some centres unmarked) [DETD-55],9
2,C=C1C(=O)OC2CC3=C[C@@H](C/C(C)=C/C(OC(=O)c4ccc(C)cc4)[C@H]12)OC3=O (some centres unmarked) [DETD-33],6.7
3,C=C1C(=O)OC2CC3=C[C@@H](C/C(C)=C/C(OC(=O)C(C)CC)[C@H]12)OC3=O (some centres unmarked) [DETD-13],> 10

# Tested on: HTB-68 (NRAS mutation)
# Experiment: MTT cell viability assay, HTB-68 melanoma
# Format: cell-based, human
# Details: Homo sapiens, 24 h
# Procedure, shortened: as §2
row,SMILES,IC50 [µM]
1,C=C1C(=O)OC2CC3=C[C@@H](C/C(C)=C/[C@@H](OC(=O)C(C)(OC)c4ccc5ccccc5c4)[C@H]12)OC3=O (some centres unmarked) [DETD-55],5.3
2,C=C1C(=O)OC2CC3=C[C@@H](C/C(C)=C/C(OC(=O)c4ccc(C)cc4)[C@H]12)OC3=O (some centres unmarked) [DETD-33],5.9
3,C=C1C(=O)OC2CC3=C[C@@H](C/C(C)=C/C(OC(=O)C(C)CC)[C@H]12)OC3=O (some centres unmarked) [DETD-13],> 10

# Tested on: A2058 (BRAF mutation)
# Experiment: MTT cell viability assay, A2058 melanoma
# Format: cell-based, human
# Details: Homo sapiens, A2058, 24 h
# Procedure, shortened: as §2
row,SMILES,IC50 [µM]
1,C=C1C(=O)OC2CC3=C[C@@H](C/C(C)=C/[C@@H](OC(=O)C(C)(OC)c4ccc5ccccc5c4)[C@H]12)OC3=O (some centres unmarked) [DETD-55],6.1
2,C=C1C(=O)OC2CC3=C[C@@H](C/C(C)=C/C(OC(=O)c4ccc(C)cc4)[C@H]12)OC3=O (some centres unmarked) [DETD-33],4.2
3,C=C1C(=O)OC2CC3=C[C@@H](C/C(C)=C/C(OC(=O)C(C)CC)[C@H]12)OC3=O (some centres unmarked) [DETD-13],> 10

# Tested on: A375 (BRAF mutation)
# Experiment: MTT cell viability assay, A375 melanoma
# Format: cell-based, human
# Details: Homo sapiens, A-375, 24 h, 24 h, MTT; read-out: IC50 on cell viability, A375 (BRAF mutation)
# Procedure, shortened: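 A375 cells were seeded at 2×10^3 to 1×10^4 per well overnight and then exposed to compounds for 24 h to 72 h. Viability was measured by MTT absorbance at OD570 relative to 0.5% DMSO vehicle (100%), and IC50 was derived from it. Combination with PLX4032 was scored by combination index.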
row,SMILES,IC50 [µM]
1,C=C1C(=O)OC2CC3=C[C@@H](C/C(C)=C/[C@@H](OC(=O)C(C)(OC)c4ccc5ccccc5c4)[C@H]12)OC3=O (some centres unmarked) [DETD-55],2.6
2,C=C1C(=O)OC2CC3=C[C@@H](C/C(C)=C/C(OC(=O)c4ccc(C)cc4)[C@H]12)OC3=O (some centres unmarked) [DETD-33],2.9
3,C=C1C(=O)OC2CC3=C[C@@H](C/C(C)=C/C(OC(=O)C(C)CC)[C@H]12)OC3=O (some centres unmarked) [DETD-13],> 10

# Tested on: Melanocyte (Normal cells)
# Experiment: MTT cell viability assay, normal melanocytes
# Format: cell-based, human
# Details: Homo sapiens, Melanocyte, 24 h
# Procedure, shortened: as §2
row,SMILES,IC50 [µM]
1,C=C1C(=O)OC2CC3=C[C@@H](C/C(C)=C/[C@@H](OC(=O)C(C)(OC)c4ccc5ccccc5c4)[C@H]12)OC3=O (some centres unmarked) [DETD-55],> 10
2,C=C1C(=O)OC2CC3=C[C@@H](C/C(C)=C/C(OC(=O)c4ccc(C)cc4)[C@H]12)OC3=O (some centres unmarked) [DETD-33],> 10
3,C=C1C(=O)OC2CC3=C[C@@H](C/C(C)=C/C(OC(=O)C(C)CC)[C@H]12)OC3=O (some centres unmarked) [DETD-13],> 10

# Tested on: RAW264.7 (normal macrophage)
# Experiment: MTT cell viability assay, RAW264.7 macrophages
# Format: cell-based, mouse
# Details: Mus musculus, RAW264.7, 24 h
# Procedure, shortened: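 RAW264.7 macrophages (2×10^5 cells/well) pretreated with compounds 1 h, then incubated 24 h with or without 100 ng/μL LPS. Viability by MTT colorimetric assay run in parallel with Griess nitrite measurement.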
row,SMILES,IC50 [µM]
1,C=C1C(=O)OC2CC3=C[C@@H](C/C(C)=C/[C@@H](OC(=O)C(C)(OC)c4ccc5ccccc5c4)[C@H]12)OC3=O (some centres unmarked) [DETD-55],> 10
2,C=C1C(=O)OC2CC3=C[C@@H](C/C(C)=C/C(OC(=O)c4ccc(C)cc4)[C@H]12)OC3=O (some centres unmarked) [DETD-33],> 10
3,C=C1C(=O)OC2CC3=C[C@@H](C/C(C)=C/C(OC(=O)C(C)CC)[C@H]12)OC3=O (some centres unmarked) [DETD-13],> 10

# Tested on: LPS-induced nitric oxide (NO) production in RAW 264.7 cells
# Experiment: Nitric oxide production in LPS-stimulated macrophages (Griess)
# Format: cell-based, mouse
# Details: Mus musculus; LPS-stimulated RAW264.7, nitrite 24 h after LPS
# Procedure, shortened: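 RAW 264.7 macrophages (2×10^5 cells/well) were pretreated with compound for 1 h and then stimulated with 100 ng/μL LPS for 24 h. NO was measured as nitrite in the medium by the Griess reaction. Viability was checked in parallel by MTT.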
row,SMILES,IC50 [µM]
1,C=C1C(=O)OC2CC3=C[C@@H](C/C(C)=C/[C@@H](OC(=O)C(C)(OC)c4ccc5ccccc5c4)[C@H]12)OC3=O (some centres unmarked) [DETD-55],2.9
2,C=C1C(=O)OC2CC3=C[C@@H](C/C(C)=C/C(OC(=O)c4ccc(C)cc4)[C@H]12)OC3=O (some centres unmarked) [DETD-33],1.9
3,C=C1C(=O)OC2CC3=C[C@@H](C/C(C)=C/C(OC(=O)C(C)CC)[C@H]12)OC3=O (some centres unmarked) [DETD-13],2

# Tested on: melanoma cell lines B16-F10, MeWo, A375, A2058, HTB-68
# Experiment: MTT cell viability assay, all melanoma cell lines
# Format: cell-based
# Details: 24 h, read-out: IC50 values over all types of melanoma cell lines
# Description: Normal or cancer cells (2×10^3 to 1×10^4 cells/well) were seeded in 96-well plate for overnight and treated with different compounds for 24 h to 72 h. Cells growth were determined by MTT-based colorimetric assays according to. Viability of the test cells treated with vehicle (0.5% DMSO) only was defined as 100% viable. Survival of cells after treatment with DETDs was calculated using the following formula: viable cell number (%)=OD570 (treated cell culture)/OD570 (vehicle control)×100.
# Several genes are involved in melanoma development and pathology; specifically, mutation in V-raf murine sarcoma viral oncogene homolog B1 (B-RAF) occurs approximately 50-60% and in neuroblastoma RAS viral oncogene homolog (N-RAS) occurs about 30% of malignant melanomas. A spectrum of wild-type or mutated melanoma cell lines including B16-F10, MeWo, A375, A2058, HTB-68, and melanocyte were used to study anti-melanoma cell proliferation activity of parental phytocompound DET and newly synthesized DETDs.
row,SMILES,IC50 [µM]
1,C=C1C(=O)OC2CC3=C[C@@H](C/C(C)=C/[C@@H](OC(=O)C(C)(OC)c4ccc5ccccc5c4)[C@H]12)OC3=O (some centres unmarked) [DETD-55],1.6 to 9.9
2,C=C1C(=O)OC2CC3=C[C@@H](C/C(C)=C/C(OC(=O)c4ccc(C)cc4)[C@H]12)OC3=O (some centres unmarked) [DETD-33],1.6 to 9.9
